{
  "source": "patent US20210107874A1",
  "about": "“PHARMACEUTICAL FORMULATION OF CROTONYLAMINOPYRIDINE SALT” (priority 2017, published 2021)",
  "key": {"Ostertagia ostertagi": {"test_system": "Ostertagia ostertagi", "test": "In vivo efficacy in challenged calves, percent reduction of nematodes", "conditions": "subcutaneous injection", "method": "(§1) Calves of 2-6 months of age were challenged with Ostertagia ostertagi (approx. 20,000 larvae L3/calf) on Day 0 and Cooperia oncophora (approx. 20,000 larvae L3/calf) on Day 1 by oral drench. At day 28, animals were treated by subcutaneous injection at a dose of 0.5 mg/kg (resp. 0.75, 1, 1.5 or 2.5 mg/kg) of a solution of compound 5. On days 35-37 animals were necropsied for extraction and counting of nematodes present. Efficacy was calculated as the percent reduction of nematodes compared to the control group. For calculation the geometric mean of the nematode numbers in treatment and control group was determined (7 animals in treatment group, 8 animals in control group). The solution A used for injection contained in 1 ml: compound 5 (100 mg), L-tartaric acid 52.6 mg, propylene glycol 400 mg, benzyl alcohol 20 mg, water for injection up to 1 ml. A control group was treated by injection of vehicle only. The solution B used for injection contained in 1 ml: (50 mg Compound 5; 24.74 mg L-tartaric acid, water for injection up to 1 ml)."}, "Cooperia oncophora": {"test_system": "Cooperia oncophora", "test": "In vivo efficacy in challenged calves, percent reduction of nematodes", "conditions": "subcutaneous injection", "method": "as §1"}, "[1]": {"test": "Solubility of synthesized tartrate salt and free base of compound 4", "format": "physicochemical", "conditions": "synthesized tartrate salt; read-out: solubility (can be dissolved)", "method": "The free base of compound 4 has a solubility of 0.8 mg/ml"}, "[2]": {"conditions": "Solution A (with propylene glycol), 0.5 mg/kg bodyweight"}, "[3]": {"conditions": "Solution A (with propylene glycol), 1.5 mg/kg bodyweight"}, "[4]": {"conditions": "Solution A (with propylene glycol), 2.5 mg/kg bodyweight"}, "[5]": {"conditions": "Solution B (without propylene glycol), 0.75 mg/kg bodyweight"}, "[6]": {"conditions": "Solution B (without propylene glycol), 1 mg/kg bodyweight"}},
  "note": "Counter-ions that a name gives are not always drawn.",
  "data": [
    {"smiles": "COc1cc(NCCNC(=O)/C=C/C(C)(F)F)ccn1", "note": "[tartrate salt of compound 5]", "values": [
      {"measurement": "reduction of O. ostertagi", "setting": "Ostertagia ostertagi; [2]", "value": 98.7, "unit": "%"},
      {"measurement": "reduction of O. ostertagi", "setting": "Ostertagia ostertagi; [3]", "value": 100, "unit": "%"},
      {"measurement": "reduction of O. ostertagi", "setting": "Ostertagia ostertagi; [4]", "value": 99.8, "unit": "%"},
      {"measurement": "reduction of O. ostertagi", "setting": "Ostertagia ostertagi; Solution B (without propylene glycol), 0.5 mg/kg bodyweight", "value": 78.6, "unit": "%"},
      {"measurement": "reduction of O. ostertagi", "setting": "Ostertagia ostertagi; [5]", "value": 99.8, "unit": "%"},
      {"measurement": "reduction of O. ostertagi", "setting": "Ostertagia ostertagi; [6]", "value": 99.9, "unit": "%"},
      {"measurement": "reduction of C. oncophora", "setting": "Cooperia oncophora; [2]", "value": 97.0, "unit": "%"},
      {"measurement": "reduction of C. oncophora", "setting": "Cooperia oncophora; [3]", "value": 100, "unit": "%"},
      {"measurement": "reduction of C. oncophora", "setting": "Cooperia oncophora; [4]", "value": 100, "unit": "%"},
      {"measurement": "reduction of C. oncophora", "setting": "Cooperia oncophora; [5]", "value": 94.0, "unit": "%"},
      {"measurement": "reduction of C. oncophora", "setting": "Cooperia oncophora; [6]", "value": 96.8, "unit": "%"}
    ]},
    {"smiles": "CCOc1cc(NCCNC(=O)/C=C/C(F)(F)F)ccn1", "note": "[tartrate salt of compound 4, tartrate salt of (E)-N-[2-[(2-ethoxy-4-pyridyl)amino]ethyl]-4,4,4-trifluoro-but-2-enamide]", "values": [
      {"measurement": "solubility", "setting": "[1]", "value": 145, "unit": "mg/mL"}
    ]}
  ]
}
